Source: US4959368A, “Therapeutic agent for neurological diseases” (Mitsui Petrochemical Industries Ltd., priority 1986, dated 1990)

Experiments:
[1] = tested on: mouse neuroblastoma cell line neuro-2a; test: Activity on neuro-2a, cells with outgrown neurites; assay type: cell-based; details: Table 3 Run No. 6, control 4.4 ± 0.9
How it was run: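 Mouse neuro-2a cells in DMEM with FCS exposed to compounds for 24 h (up to 6 concentrations, triplicate runs), glutaraldehyde-fixed and methylene blue-stained. Proportion of cells bearing a neurite at least twice the cell's long diameter counted microscopically over ≥200 cells.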

[2] = tested on: mice; test: Acute toxicity, mouse; assay type: in vivo; details: 24 hours
Protocol: (§1) The acute toxicity of the compounds of the invention was examined by the following method.
(§2) Male ddy-strain 5-week old mice and male Wistar-strain 8 week old rats, five per group, were used as experimental animals. Each of the compounds was dissolved in saline and administered perorally, and the toxicity of the compound was assessed 24 hours after the administration.

[3] = Acute toxicity, rat; assay type: in vivo; details: in vivo, po, read-out: Presumed LD50
Protocol: as §1, §2

[4] = tested on: rats; test: Acute toxicity, rat; assay type: in vivo; details: 24 hours
Protocol: as §1, §2

[5] = tested on: human neuroblastoma cell line GOTO; test: Activity on neuroblastoma cell line GOTO (cell number, number and length of neurites); assay type: cell-based; details: for Number of cells: control 3.17
How it was run: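 GOTO cells were cultured 1–2 days at 37 °C, 5% CO2, then switched to serum-free RPMI/MEM (1:1) with compounds in PBS at various concentrations for 24 h. Living cells were counted by erythrosine exclusion (3–6 dishes); neurite number and length per cell were measured from photographs.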

[6] = tested on: mouse neuroblastoma cell line neuro-2a; test: Activity on cell line neuro-2a (simple method); assay type: cell-based; details: control 7.9
Protocol: The biological activities in vitro of the compounds of formula (I) on cells of the nervous system were tested. The cells tested were human neuroblastoma cell line GOTO [see Sekiguchi, M., Oota, T., Sakakibara, K., Inui, N. & Fujii, G., Japan. J. Exp. Med., 49, 67-83 (1979)], and neuroblastoma cell line NB-1 [see Miyake, S., Shimo, Y., Kitamura, T., Nojyo, Y., Nakamura, T., Imkashuku, S. and Abe, T., The Autonomic Nervous System, 10, 115-120 (1973)], and mouse neuroblastoma cell line neuro-2a (Dainippon Pharmaceutical Co., Ltd.) which have been established as the cells of the nervous system. The above neuve cells were grown in an incubator at 37° C. in the presence of 5% carbon dioxide gas exponentially, and then cultivated for a certain period of time together with the compounds of formula (I). […]
(§3) As a simple method of evaluation, the number of cells have neurites with a length equal to, or larger than, the long diameter of the cell was divided by the total number of cells.

[7] = tested on: human neuroblastoma cell line GOTO; test: Activity on cell line GOTO (simple method); assay type: cell-based; details: Table 2 GOTO Run No. 2; 10 μg/ml; control 8.4
Protocol: The biological activities in vitro of the compounds of formula (I) on cells of the nervous system were tested. The cells tested were human neuroblastoma cell line GOTO [see Sekiguchi, M., Oota, T., Sakakibara, K., Inui, N. & Fujii, G., Japan. J. Exp. Med., 49, 67-83 (1979)], and neuroblastoma cell line NB-1 [see Miyake, S., Shimo, Y., Kitamura, T., Nojyo, Y., Nakamura, T., Imkashuku, S. and Abe, T., The Autonomic Nervous System, 10, 115-120 (1973)], and mouse neuroblastoma cell line neuro-2a (Dainippon Pharmaceutical Co., Ltd.) which have been established as the cells of the nervous system. The above neuve cells were grown in an incubator at 37° C. in the presence of 5% carbon dioxide gas exponentially, and then cultivated for a certain period of time together with the compounds of formula (I).
A culture medium [composed of 45% of RPMI 1640 medium, 45% modified Eagle's medium (MEM) and 10% of fetal calf serum (FCS) and containing penicillin G sodium (100 units/ml) and streptomycin sulfate (100 microgram/ml)] containing neurobalstoma cell line GOTO in the logarithmic growth period was poured in an amount of 2 ml each into polystyrene dishes (35 mm; made by Corning Co.) so that the cell concentration was 2 to 6×10^4 cells per dish, and the cells were cultured for 1 to 2 days in a carbon dioxide gas incubator containing 5% of carbon dioxide gas in air at 37° C. Then, the culture fluid was removed, and 2 ml of a fresh serum-free culture fluid (consisting of 50% of RPMI medium and 50% of MEM medium and containing penicillin G sodium and streptomycin sulfate in the same amounts as above) was added. At the same time, a presterilized PBS solution (phosphate buffered saline) of each of the test compounds in various concentrations was added to each of the dishes. After culturing for 24 hours, the number of living cells was counted. Furthermore, the culture was photographed, and from the photos, the number and length of neurites per cell were measured. The numer of living cells was counted for 3 to 6 dishes by resistance to staining with erythrosine dye. The number and length of the neurites were measured with regard to 6 photos (more than 200 cells per photo).
as §3

[8] = Acute toxicity, mouse; assay type: in vivo; details: in vivo, po, Table 6, p.o., read-out: Presumed LD50
Protocol: as §1, §2

[9] = Table 1 Run No. 3, 1 μg/ml, control 1.94 ± 0.69, all *P <0.01
[10] = Table 1 Run No. 3, 1 μg/ml, control 45.13 ± 22.71, all *P <0.01
[11] = Table 2 neuro-2a Run No. 1, 1 μg/ml
[12] = Table 2 neuro-2a Run No. 1, 10 μg/ml

Structure (SMILES) | Number of dead animals/number of test animals ([2]; Table 7, 1000 mg/kg p.o.) | Number of dead animals/number of test animals ([2]; Table 7, 1700 mg/kg p.o.) | Number of dead animals/number of test animals ([2]; Table 7, 3000 mg/kg p.o.) | LD50 at 24 h ([3]; Table 7, p.o.) [mg/kg] | Number of dead animals/number of test animals ([4]; Table 7, 1700 mg/kg p.o.) | Number of neurites/cell (mean ± S.D.) [5, 9] [neurites/cell] | Number of cells ([5]; Table 1 Run No. 3, 1 μg/ml) | Length of neurites (mean ± S.D.) [5, 10] [μm/cell] | Average of the proportions [7] [%] | Average of the proportions [6, 11] [%] | Average of the proportions [6, 12] [%] | LD50 at 24 h [8] [mg/kg] | Number of dead animals/number of test animals ([2]; Table 6, 300 mg/kg p.o.) | Number of dead animals/number of test animals ([2]; Table 6, 500 mg/kg p.o.) | Number of dead animals/number of test animals ([2]; Table 6, 1000 mg/kg p.o.) | LD50 at 24 h ([3]; Table 6, p.o.) [mg/kg] | Number of dead animals/number of test animals ([4]; Table 6, 300 mg/kg p.o.) | Number of dead animals/number of test animals ([4]; Table 6, 500 mg/kg p.o.) | Number of dead animals/number of test animals ([4]; Table 6, 1000 mg/kg p.o.) | other results
CN1Cc2nc(N3CCNCC3)ncc2C1=O [Compound 602] | 0/5 | 0/5 | 3/5 | > 1700 | 0/5 | – | – | – | – | – | – | – | – | – | – | – | – | – | – | Cells having neurites with a length at least twice the long diameter of cell/total number of cells ([1]; 0.1 mM): 6.2 ± 0.2%; Cells having neurites with a length at least twice the long diameter of cell/total number of cells ([1]; 3 mM): 10.0 ± 0.9%
CCN1Cc2nc(N3CCNCC3)ncc2C1=O [Compound 616] | 0/5 | 0/5 | 4/5 | > 1700 | 0/5 | – | – | – | – | – | – | – | – | – | – | – | – | – | – | Length of neurites (mean ± S.D.) ([5]; Table 1, Run No. 6 by footnote, 1 μg/ml, control 42.48 ± 19.64, all *P <0.01): 56.68 ± 23.36 μm/cell; Number of neurites/cell (mean ± S.D.) ([5]; Table 1, Run No. 6 by footnote, 10 μg/ml, control 1.79 ± 0.80): 2.13 ± 0.91 neurites/cell; Length of neurites (mean ± S.D.) ([5]; Table 1, Run No. 6 by footnote, 10 μg/ml, control 42.48 ± 19.64, all *P <0.01): 57.96 ± 27.96 μm/cell; Number of neurites/cell (mean ± S.D.) ([5]; Table 1, second control group (Run No. 6 by footnote), 1 μg/ml, control 1.79 ± 0.80): 2.04 ± 0.91 neurites/cell; Average of the proportions ([6]; Table 2 neuro-2a Run No. 2, 1 μg/ml): 15.79%; Average of the proportions ([6]; Table 2 neuro-2a Run No. 2, 10 μg/ml): 18.40%; Cells having neurites with a length at least twice the long diameter of cell/total number of cells ([1]; 0.3 mM): 10.6 ± 1.5%; Cells having neurites with a length at least twice the long diameter of cell/total number of cells ([1]; 1 mM): 10.3 ± 1.4%
Cn1ccc2nc(N3CCNCC3)ncc2c1=O [Compound 706] | – | – | – | – | – | 2.26 ± 0.82 | 4.12 × 10^4 /dish | 63.24 ± 28.17 | 16.39 | 17.21 | 15.40 | 550 to 1000 | 0/5 | 2/5 | 4/5 | 550 to 1000 | 0/5 | 1/5 | 3/5 | Number of neurites/cell (mean ± S.D.) ([5]; Table 1 Run No. 3, 0.1 μg/ml, control 1.94 ± 0.69, *P <0.01): 2.30 ± 0.75 neurites/cell; Number of cells ([5]; Table 1 Run No. 3, 0.1 μg/ml): 3.81 × 10^4 /dish; Length of neurites (mean ± S.D.) ([5]; Table 1 Run No. 3, 0.1 μg/ml, control 45.13 ± 22.71, *P <0.01): 72.11 ± 26.58 μm/cell
CCn1ccc2nc(N3CCNCC3)ncc2c1=O [Compound 710] | – | – | – | – | – | 2.17 ± 0.79 | 3.92 × 10^4 /dish | 60.93 ± 23.66 | 15.02 | 15.97 | 13.70 | 300 to 550 | 0/5 | 3/5 | 5/5 | 550 to 1000 | 1/5 | 2/5 | 5/5 | Number of neurites/cell (mean ± S.D.) ([5]; Table 1 Run No. 1, 10 μg/ml, control 2.09 ± 0.61): 2.12 ± 0.51 neurites/cell; Number of cells (mean ± S.E.) ([5]; Table 1 Run No. 1, 10 μg/ml, control 14.34 ± 0.72): 19.18 ± 0.67 × 10^4 /dish; Length of neurites (mean ± S.D.) ([5]; Table 1 Run No. 1, 10 μg/ml, control 70.10 ± 43.03): 86.10 ± 50.70 μm/cell; Number of neurites/cell (mean ± S.D.) ([5]; Table 1 Run No. 1, 100 μg/ml, control 2.09 ± 0.61): 1.71 ± 0.59 neurites/cell; Number of cells (mean ± S.E.) ([5]; Table 1 Run No. 1, 100 μg/ml, control 14.34 ± 0.72): 11.92 ± 0.66 × 10^4 /dish; Length of neurites (mean ± S.D.) ([5]; Table 1 Run No. 1, 100 μg/ml, control 70.10 ± 43.03): 47.34 ± 35.11 μm/cell; Number of neurites/cell (mean ± S.D.) ([5]; Table 1 Run No. 2, 1 μg/ml, control 2.06 ± 0.60): 2.14 ± 0.63 neurites/cell; Number of cells (mean ± S.E.) ([5]; Table 1 Run No. 2, 1 μg/ml, control 12.30 ± 1.48): 17.44 ± 1.50 × 10^4 /dish; Length of neurites (mean ± S.D.) ([5]; Table 1 Run No. 2, 1 μg/ml, control 55.00 ± 37.26): 73.74 ± 43.49 μm/cell; Number of neurites/cell (mean ± S.D.) ([5]; Table 1 Run No. 2, 10 μg/ml, control 2.06 ± 0.60): 2.09 ± 0.62 neurites/cell; Number of cells (mean ± S.E.) ([5]; Table 1 Run No. 2, 10 μg/ml, control 12.30 ± 1.48): 15.15 ± 2.26 × 10^4 /dish; Length of neurites (mean ± S.D.) ([5]; Table 1 Run No. 2, 10 μg/ml, control 55.00 ± 37.26): 62.74 ± 35.64 μm/cell; Number of cells ([5]; Table 1 Run No. 3, 0.0 μg/ml (so in the source)): 3.66 × 10^4 /dish
